# Assay results reported in ChEMBL document CHEMBL5126609, “Design, Synthesis, and Pharmacological Evaluation of Benzimidazolo-thiazoles as Potent CXCR3 Antagonists with Therapeutic Potential in Autoimmune Diseases: Discovery of ACT-672125” (J Med Chem, 2022).
# How the values were obtained:
# [1] = biological target: T1, C-X-C chemokine receptor type 3 (Homo sapiens, UniProt P49682); assay: Antagonist activity at human recombinant CXCR3 expressed in CHO-K1 cells measured after 10 mins in presence of CXCL10 by FLIPR analysis
# T1 sequence (P49682 whole entry): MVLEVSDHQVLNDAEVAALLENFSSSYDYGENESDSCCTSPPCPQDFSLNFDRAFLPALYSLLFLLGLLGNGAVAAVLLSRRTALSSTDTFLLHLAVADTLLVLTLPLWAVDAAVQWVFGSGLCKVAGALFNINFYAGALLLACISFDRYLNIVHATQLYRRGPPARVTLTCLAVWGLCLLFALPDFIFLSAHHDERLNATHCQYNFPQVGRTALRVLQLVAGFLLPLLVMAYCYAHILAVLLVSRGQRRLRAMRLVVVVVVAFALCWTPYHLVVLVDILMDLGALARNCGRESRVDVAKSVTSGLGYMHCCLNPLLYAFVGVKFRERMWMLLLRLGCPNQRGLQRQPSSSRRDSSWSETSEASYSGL
# [2] = biological target: T1, C-X-C chemokine receptor type 3; assay: Antagonist activity at human recombinant CXCR3 in human venous blood assessed as receptor internalization measured for 30 mins in presence of CXCL10 by flow cytometric analysis
# hERG (KCNH2) = hERG (KCNH2) (Homo sapiens, UniProt Q12809); assay: Inhibition of hERG expressed in CHO cells at 3 uM at -80 mV holding potential assessed as current block incubated for 3 mins by Qpatch clamp method relative to control
# hERG (KCNH2), sequence (Q12809 whole entry): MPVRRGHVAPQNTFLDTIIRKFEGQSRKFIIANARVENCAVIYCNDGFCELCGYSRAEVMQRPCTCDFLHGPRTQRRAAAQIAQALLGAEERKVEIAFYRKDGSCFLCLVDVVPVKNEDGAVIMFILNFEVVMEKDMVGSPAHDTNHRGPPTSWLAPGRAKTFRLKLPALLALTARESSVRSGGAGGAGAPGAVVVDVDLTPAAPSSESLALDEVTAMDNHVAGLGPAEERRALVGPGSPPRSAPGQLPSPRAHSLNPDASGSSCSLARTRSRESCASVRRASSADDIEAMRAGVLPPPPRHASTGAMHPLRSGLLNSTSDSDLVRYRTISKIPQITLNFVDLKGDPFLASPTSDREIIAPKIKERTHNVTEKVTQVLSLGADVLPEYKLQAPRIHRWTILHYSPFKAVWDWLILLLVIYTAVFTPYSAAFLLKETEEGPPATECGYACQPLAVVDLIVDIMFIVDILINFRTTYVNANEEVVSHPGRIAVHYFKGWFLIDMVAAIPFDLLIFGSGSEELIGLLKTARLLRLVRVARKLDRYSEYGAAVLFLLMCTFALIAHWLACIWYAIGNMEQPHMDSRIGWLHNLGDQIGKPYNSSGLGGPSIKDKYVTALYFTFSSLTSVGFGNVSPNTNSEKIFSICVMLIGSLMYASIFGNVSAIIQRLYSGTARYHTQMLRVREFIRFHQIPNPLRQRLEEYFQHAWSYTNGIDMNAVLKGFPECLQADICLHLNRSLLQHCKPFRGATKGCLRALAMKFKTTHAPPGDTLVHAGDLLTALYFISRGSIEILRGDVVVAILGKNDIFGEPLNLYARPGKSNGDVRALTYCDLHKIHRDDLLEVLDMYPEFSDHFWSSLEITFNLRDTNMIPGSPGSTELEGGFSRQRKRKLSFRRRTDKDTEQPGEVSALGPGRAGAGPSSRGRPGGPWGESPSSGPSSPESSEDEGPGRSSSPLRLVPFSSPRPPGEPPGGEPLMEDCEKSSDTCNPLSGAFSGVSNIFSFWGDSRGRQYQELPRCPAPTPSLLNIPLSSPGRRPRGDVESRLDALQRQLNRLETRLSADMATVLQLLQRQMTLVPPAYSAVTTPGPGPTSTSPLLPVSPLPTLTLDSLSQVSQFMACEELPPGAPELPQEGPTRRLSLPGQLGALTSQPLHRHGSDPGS
# [3] = Lipophilicity, log D of the compound at pH 7.4; details: buffer
# [4] = Solubility of the compound in FeSSIF; details: simulated gi fluid
# [5] = Unbound fraction in mouse plasma by equilibrium based LC-MS/MS analysis
# [6] = Apparent permeability across apical to basolateral side in MDCK1 cells by LC-MS/MS analysis; details: dog, MDCK
# in vivo [7] = details: Balb/c, mouse, po, 10 mg/kg
# in vivo [8] = details: Balb/c, mouse, po, 10 mg/kg; remark: listed apart in the source
# in vivo [9] = details: Balb/c, mouse, po, 10 mg/kg; remark: listed apart in the source
# in vitro [10] = details: human, microsomes
# in vitro [11] = details: mouse, microsomes
# [12] = Solubility of the compound in FaSSIF; details: simulated gi fluid
# [13] = Unbound fraction in human plasma by equilibrium based LC-MS/MS analysis
# [14] = Unbound fraction in rat plasma by equilibrium based LC-MS/MS analysis
# [15] = Clearance in Wistar rat at 2 mg/kg, po; details: in vivo
# [16] = Half life in Wistar rat at 0.5 mg/kg, iv; details: in vivo
# in vivo [17] = details: Wistar, rat, po, 2 mg/kg
# in vivo [18] = details: Wistar, rat, po, 2 mg/kg; remark: listed apart in the source
# in vivo [19] = details: Wistar, rat, po, 2 mg/kg; remark: listed apart in the source
# in vitro [20] = details: rat, microsomes
IC50 [1],IC50 [2],logD [3],solubility [4],"microsomal CLint at 0.25 h, 1 µM (in vitro [10])",Structure (SMILES),"inhibition at 0.05 h, 3 µM (hERG (KCNH2))",other results
3.1 nM,321 nM,3.6,750 µg/mL,24 µL/min/mg,Cc1nc(C)n(CC(=O)N2CCN(c3sc(C(F)(F)F)nc3-c3nc4c(F)cccc4[nH]3)C[C@H]2C)n1,45%,"fraction unbound [5]: 0.014; Papp A→B [6]: 8.5 ×10⁻⁶ cm/s; Cmax (in vivo [7]): 7010 ng/mL; Tmax (in vivo [8]): 15 min; AUC (in vivo [9]): 41500 ng·h/mL; microsomal CLint at 0.25 h, 1 µM (in vitro [11]): 25 µL/min/mg"
31 nM,2470 nM,–,–,–,Cc1nnc(CC(=O)N2CCN(c3sc(C(F)(F)F)nc3-c3nc4ccccc4[nH]3)C[C@H]2C)o1,36%,–
6 nM,747 nM,–,–,–,Cc1nc(C)n(CC(=O)N2CCN(c3sc(C(F)(F)F)nc3-c3nc4c(C(F)(F)F)cccc4[nH]3)C[C@H]2C)n1,52%,–
15 nM,1690 nM,–,–,–,C[C@@H]1CN(c2sc(C(F)(F)F)nc2-c2nc3ccccc3[nH]2)CCN1C(=O)Cn1cc(C2CCN(C)CC2)cn1,74%,–
23 nM,502 nM,–,–,–,C[C@@H]1CN(c2sc(C(F)(F)F)nc2-c2nc3ccccc3[nH]2)CCN1C(=O)Cc1cccc2cccnc12,78%,–
5.8 nM,1140 nM,–,–,–,Cc1nc(C)n(CC(=O)N2CCN(c3sc(C(F)(F)F)nc3-c3nc4ccc(-n5cncn5)cc4[nH]3)C[C@H]2C)n1,3%,–
3.6 nM,135 nM,3,> 920 µg/mL,21 µL/min/mg,C[C@@H]1CN(c2sc(C(F)(F)F)nc2-c2nc3ccccc3[nH]2)CCN1C(=O)Cn1cnc2c1CCN(C)C2,33%,solubility [12]: > 920 µg/mL; fraction unbound [13]: 0.15

# Further lines, the molecule ahead of its results:
Structure (SMILES),IC50 [1],IC50 [2],logD [3],solubility [4],"microsomal CLint at 0.25 h, 1 µM (in vitro [10])","inhibition at 0.05 h, 3 µM (hERG (KCNH2))",other results
C[C@@H]1CN(c2sc(C(F)(F)F)nc2-c2nc3ccccc3n2C)CCN1C(=O)Cn1cccn1,110 nM,3560 nM,–,–,–,46%,–
Cc1nc(C)n(CC(=O)N2CCN(c3sc(C(F)(F)F)nc3-c3nc4ccccc4[nH]3)C[C@H]2C)n1,3.2 nM,237 nM,3.3,> 850 µg/mL,30 µL/min/mg,45%,"solubility [12]: 440 µg/mL; fraction unbound [13]: 0.113; fraction unbound [5]: 0.041; fraction unbound [14]: 0.074; CL/F [15]: 6 mL/min/kg; half-life [16]: 180 min; Papp A→B [6]: 12 ×10⁻⁶ cm/s; Cmax (in vivo [7]): 5090 ng/mL; Tmax (in vivo [8]): 30 min; Tmax (in vivo [17]): 30 min; AUC (in vivo [9]): 10800 ng·h/mL; AUC (in vivo [18]): 2970 ng·h/mL; bioavailability (in vivo [19]): 0.5%; microsomal CLint at 0.25 h, 1 µM (in vitro [11]): 21 µL/min/mg; microsomal CLint at 0.25 h, 1 µM (in vitro [20]): 39 µL/min/mg"
Cc1nn(CC(=O)N2CCN(c3sc(C(F)(F)F)nc3-c3nc4ccccc4[nH]3)C[C@H]2C)cc1CN(C)C,2.7 nM,330 nM,2.4,645 µg/mL,37 µL/min/mg,38%,"solubility [12]: 649 µg/mL; fraction unbound [13]: 0.143; fraction unbound [5]: 0.053; Cmax (in vivo [7]): 258 ng/mL; Tmax (in vivo [8]): 120 min; AUC (in vivo [9]): 833 ng·h/mL; microsomal CLint at 0.25 h, 1 µM (in vitro [11]): 29 µL/min/mg"
Cc1nc(C)n(CC(=O)N2CCN(c3sc(C(F)(F)F)nc3-c3nc4ccc(C5CCN(C)CC5)cc4[nH]3)C[C@H]2C)n1,–,–,3.4,> 1020 µg/mL,27 µL/min/mg,-5%,Cmax (in vivo [7]): 30.5 ng/mL; Tmax (in vivo [8]): 180 min; AUC (in vivo [9]): 54.6 ng·h/mL
C[C@@H]1CN(c2sc(C(F)(F)F)nc2-c2nc3ccc(N4CCN(C)CC4)cc3[nH]2)CCN1C(=O)Cn1cccn1,1.6 nM,122 nM,–,–,–,0%,–
C[C@@H]1CN(c2sc(C(F)(F)F)nc2-c2nc3ccccc3[nH]2)CCN1C(=O)Cn1cc(Cl)cn1,1.7 nM,251 nM,–,–,–,70%,–
COCCn1c(-c2nc(C(F)(F)F)sc2N2CCN(C(=O)Cn3cccn3)[C@H](C)C2)nc2ccccc21,150 nM,6890 nM,–,–,–,2%,–
C[C@@H]1CN(c2sc(C(F)(F)F)nc2-c2nc3ccc(CO)cc3[nH]2)CCN1C(=O)Cn1cnc2cccnc21,4.6 nM,–,–,–,131 µL/min/mg,12%,–
C[C@@H]1CN(c2sc(C(F)(F)F)nc2-c2nc3cc(OCCO)ccc3[nH]2)CCN1C(=O)Cn1cnc2cccnc21,2.1 nM,99.1 nM,2.4,549 µg/mL,43 µL/min/mg,25%,"fraction unbound [5]: 0.03; Cmax (in vivo [7]): 1760 ng/mL; Tmax (in vivo [8]): 15 min; AUC (in vivo [9]): 519 ng·h/mL; microsomal CLint at 0.25 h, 1 µM (in vitro [11]): 31 µL/min/mg"
Cc1ccc(CC(=O)N2CCN(c3sc(C(F)(F)F)nc3-c3nc4ccccc4[nH]3)C[C@H]2C)cn1,6.1 nM,805 nM,–,–,–,73%,–
